This note sets out measurements from US8022218B2, “4-phenyl-5-oxo-1,4,5,6,7,8-hexahydroquinoline derivatives for the treatment of infertility” (N.V. Organon, priority 2005, dated 2011).

The target of the test is T1, human FSH receptor (Homo sapiens, UniProt P23945).
T1 construct: expressed in transfected cells; host or cells: Chinese Hamster Ovary (CHO) cells
T1 sequence (P23945 18-695): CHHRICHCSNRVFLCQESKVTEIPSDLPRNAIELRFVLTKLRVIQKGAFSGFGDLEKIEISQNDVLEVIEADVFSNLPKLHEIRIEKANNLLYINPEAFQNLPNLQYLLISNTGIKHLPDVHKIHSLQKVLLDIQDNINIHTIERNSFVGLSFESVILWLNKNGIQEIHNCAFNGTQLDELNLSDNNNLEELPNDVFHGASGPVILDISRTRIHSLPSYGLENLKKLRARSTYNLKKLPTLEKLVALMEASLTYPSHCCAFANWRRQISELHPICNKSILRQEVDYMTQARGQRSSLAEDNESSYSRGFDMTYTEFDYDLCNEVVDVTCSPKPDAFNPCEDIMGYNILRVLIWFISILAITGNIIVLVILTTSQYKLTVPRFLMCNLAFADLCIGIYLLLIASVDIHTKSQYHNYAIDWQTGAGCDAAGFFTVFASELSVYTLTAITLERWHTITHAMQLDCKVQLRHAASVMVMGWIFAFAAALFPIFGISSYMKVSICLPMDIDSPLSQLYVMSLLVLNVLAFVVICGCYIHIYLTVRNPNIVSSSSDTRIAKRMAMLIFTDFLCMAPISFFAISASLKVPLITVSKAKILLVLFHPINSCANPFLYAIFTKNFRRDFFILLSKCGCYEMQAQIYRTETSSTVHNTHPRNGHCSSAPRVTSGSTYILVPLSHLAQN
In words: Agonistic activity at the human FSH receptor expressed in CHO cells (CRE-luciferase reporter). Particulars: CHO cells stably transfected with human FSH receptor and CRE/luciferase reporter; tested 0.1 nM to 10 μM; read-out: EC50 (concentration of test compound causing half-maximal (50%) luciferase stimulation). In kind it is cell-based. The protocol:
Agonistic Activity of Compounds at the Human FSH Receptor Expressed in CHO Cells
Agonist activity of the compounds at the human FSH receptor was tested in Chinese Hamster Ovary (CHO) cells stably transfected with the human FSH receptor and cotransfected with a cAMP responsive element (CRE)/promotor directing the expression of a firefly luciferase reporter gene. Binding of the compound to the Gscoupled FSH receptor will result in an increase of cAMP, which in turn will induce an increased transactivation of the luciferase reporter construct. The luciferase activity was quantified using a luminescence counter. The compounds were tested in the concentration range of 0.1 nM to 10 μM. This assay was used to determine the EC50 (concentration of test compound causing half-maximal (50%) luciferase stimulation) and efficacy of the compounds compared to recombinant human FSH. For this, the software program XLfit (Excel version 2.0, built 30, ID Business Solutions Limited) was used.
For orientation: In a reporter assay the amount or activity of a reporter protein is the signal.
Consider `CCCC1CC(=O)C2=C(C1)NC(C)=C(C#N)C2c1cc(Br)c(OCc2cccc(NC(=O)c3cc(OC)c(OC)c(OC)c3)c2)c(OCC)c1` (stereo not drawn) [Example 1, N-{3-[2-Bromo-4-(3-cyano-2-methyl-5-oxo-7-propyl-1,4,5,6,7,8-hexahydro-quinolin-4-yl)-6-ethoxy-phenoxymethyl]-phenyl}-3,4,5-trimethoxy-benzamide], for which the EC50 was < 10 nM.
With `CCCC1CC(=O)C2=C(C1)NC(C)=C(C#N)C2c1cc(Br)c(OCc2cccc(NC(=O)CNCc3ccncc3)c2)c(OCC)c1` (stereo not drawn) [Example 3, N-{3-[2-Bromo-4-(3-cyano-2-methyl-5-oxo-7-propyl-1,4,5,6,7,8-hexahydro-quinolin-4-yl)-6-ethoxy-phenoxymethyl]-phenyl}-2-[(pyridin-4-ylmethyl)-amino]-acetamide], the EC50 is < 10 nM.
Regarding `CCCC1CC(=O)C2=C(C1)NC(C)=C(C#N)C2c1cc(Br)c(OCc2cccc(NC(=O)CN3CCN(CCO)CC3)c2)c(OCC)c1` (stereo not drawn) [Example 5, N-{3-[2-Bromo-4-(3-cyano-2-methyl-5-oxo-7-propyl-1,4,5,6,7,8-hexahydro-quinolin-4-yl)-6-ethoxy-phenoxymethyl]-phenyl}-2-[4-(2-hydroxy-ethyl)-piperazin-1-yl]-acetamide], the EC50 is < 10 nM.
The value for `CCCC1CC(=O)C2=C(C1)NC(C)=C(C#N)C2c1cc(Br)c(OCc2cccc(C(=O)N3CC=CCC3)c2)c(OCC)c1` (stereo not drawn) [Example 7, 4-{3-Bromo-4-[3-(3,6-dihydro-2H-pyridine-1-carbonyl)-benzyloxy]-5-ethoxy-phenyl}-2-methyl-5-oxo-7-propyl-1,4,5,6,7,8-hexahydro-quinoline-3-carbonitrile] was < 10 nM.
As to `CCCC1CC(=O)C2=C(C1)NC(C)=C(C#N)C2c1cc(Br)c(OCc2cccc(NC(=O)CCN(CCOC)CCOC)c2)c(OCC)c1` (stereo not drawn) [Example 11, 3-[Bis-(2-methoxy-ethyl)-amino]-N-{3-[2-bromo-4-(3-cyano-2-methyl-5-oxo-7-propyl-1,4,5,6,7,8-hexahydro-quinolin-4-yl)-6-ethoxy-phenoxymethyl]-phenyl}-propionamide], the EC50 is < 10 nM.
The value for `CCCC1CC(=O)C2=C(C1)NC(C)=C(C#N)C2c1cc(Br)c(OCc2cccc(OCC(=O)N(C)C)c2)c(OCC)c1` (stereo not drawn) [Example 15, 2-{3-[2-Bromo-4-(3-cyano-2-methyl-5-oxo-7-propyl-1,4,5,6,7,8-hexahydro-quinolin-4-yl)-6-ethoxy-phenoxymethyl]-phenoxy}-N,N-dimethyl-acetamide] was < 10 nM; that for `CCCC1CC(=O)C2=C(C1)NC(C)=C(C#N)C2c1cc(Br)c(OCc2cccc(OCC(=O)N3CCOCC3)c2)c(OCC)c1` (stereo not drawn) [Example 17, 4-{3-Bromo-5-ethoxy-4-[3-(2-morpholin-4-yl-2-oxo-ethoxy)-benzyloxy]-phenyl}-2-methyl-5-oxo-7-propyl-1,4,5,6,7,8-hexahydro-quinoline-3-carbonitrile] was < 10 nM.
For `CCCC1CC(=O)C2=C(C1)NC(C)=C(C#N)C2c1cc(Br)c(OCc2ccccc2NC(=O)c2ccco2)c(OCC)c1` (stereo not drawn) [Example 22, Furan-2-carboxylic acid {2-[2-bromo-4-(3-cyano-2-methyl-5-oxo-7-propyl-1,4,5,6,7,8-hexahydro-quinolin-4-yl)-6-ethoxy-phenoxymethyl]-phenyl}-amide], the EC50 is < 10 nM.
The value for `C=CC(=O)Nc1ccccc1COc1c(Br)cc(C2C(C#N)=C(C)NC3=C2C(=O)CC(CCC)C3)cc1OCC` (stereo not drawn) [Example 23, N-{2-[2-Bromo-4-(3-cyano-2-methyl-5-oxo-7-propyl-1,4,5,6,7,8-hexahydro-quinolin-4-yl)-6-ethoxy-phenoxymethyl]-phenyl}-acrylamide] was < 10 nM; that for `CCCC1CC(=O)C2=C(C1)NC(C)=C(C#N)C2c1cc(Br)c(OCc2ccccc2NC(=O)C2CC2)c(OCC)c1` (stereo not drawn) [Example 24, Cyclopropanecarboxylic acid {2-[2-bromo-4-(3-cyano-2-methyl-5-oxo-7-propyl-1,4,5,6,7,8-hexahydro-quinolin-4-yl)-6-ethoxy-phenoxymethyl]-phenyl}-amide] was < 10 nM; that for `CCCC1CC(=O)C2=C(C1)NC(C)=C(C#N)C2c1cc(Br)c(OCc2ccccc2NC(=O)OC)c(OCC)c1` (stereo not drawn) [Example 25] was < 10 nM.
Take `CCCC1CC(=O)C2=C(C1)NC(C)=C(C#N)C2c1cc(Br)c(OCc2ccccc2NC(=O)NC)c(OCC)c1` (stereo not drawn) [Example 34, 1-{2-[2-Bromo-4-(3-cyano-2-methyl-5-oxo-7-propyl-1,4,5,6,7,8-hexahydro-quinolin-4-yl)-6-ethoxy-phenoxymethyl]-phenyl}-3-methyl-urea]: the EC50 is < 10 nM.
Turning to `CCCC1CC(=O)C2=C(C1)NC(C)=C(C#N)C2c1cc(Br)c(OCc2cccnc2NC(=O)OC)c(OCC)c1` (stereo not drawn) [Example 38, {3-[2-Bromo-4-(3-cyano-2-methyl-5-oxo-7-propyl-1,4,5,6,7,8-hexahydro-quinolin-4-yl)-6-ethoxy-phenoxymethyl]-pyridin-2-yl}-carbamic acid methyl ester], the EC50 is < 10 nM.
On to `CCCC1CC(=O)C2=C(C1)NC(C)=C(C#N)C2c1cc(Br)c(OCc2cccc(NS(C)(=O)=O)c2)c(OCC)c1` (stereo not drawn) [Example 42, N-{3-[2-Bromo-4-(3-cyano-2-methyl-5-oxo-7-propyl-1,4,5,6,7,8-hexahydro-quinolin-4-yl)-6-ethoxy-phenoxymethyl]-phenyl}-methanesulfonamide], for which the EC50 was < 10 nM.
Consider `C=CCOC(=O)Nc1ccc(COc2c(Br)cc(C3C(C#N)=C(C)NC4=C3C(=O)CC(CCC)C4)cc2OCC)cc1` (stereo not drawn) [Example 50, {4-[2-Bromo-4-(3-cyano-2-methyl-5-oxo-7-propyl-1,4,5,6,7,8-hexahydro-quinolin-4-yl)-6-ethoxy-phenoxymethyl]-phenyl}-carbamic acid allyl ester], for which the EC50 was < 10 nM.
As to `CCCC1CC(=O)C2=C(C1)NC(C)=C(C#N)C2c1cc(Br)c(OCc2cccn2S(C)(=O)=O)c(OCC)c1` (stereo not drawn) [Example 51, 4-[3-Bromo-5-ethoxy-4-(1-methanesulfonyl-1H-pyrrol-2-ylmethoxy)-phenyl]-2-methyl-5-oxo-7-propyl-1,4,5,6,7,8-hexahydro-quinoline-3-carbonitrile], the EC50 is < 10 nM.
Consider `CCCC1CC(=O)C2=C(C1)NC(C)=C(C#N)C2c1cc(Br)c(OCc2ccc(C(=N)NC)cc2)c(OCC)c1` (stereo not drawn) [Example 54, 4-[2-Bromo-4-(3-cyano-2-methyl-5-oxo-7-propyl-1,4,5,6,7,8-hexahydro-quinolin-4-yl)-6-ethoxy-phenoxymethyl]-N-methyl-benzamidine], for which the EC50 is < 10 nM.
For `CCCC1CC(=O)C2=C(C1)NC(C)=C(C#N)C2c1cc(Br)c(NCc2cccnc2)c(OCC)c1` (stereo not drawn) [Example 56, 4-{3-Bromo-5-ethoxy-4-[(pyridin-3-ylmethyl)-amino]-phenyl}-2-methyl-5-oxo-7-propyl-1,4,5,6,7,8-hexahydro-quinoline-3-carbonitrile], the EC50 was < 10 nM.
As for `CCCC1CC(=O)C2=C(C1)NC(C)=C(C#N)C2c1cc(Br)c(NCc2ccccc2NS(C)(=O)=O)c(OCC)c1` (stereo not drawn) [Example 58, N-(2-{[2-Bromo-4-(3-cyano-2-methyl-5-oxo-7-propyl-1,4,5,6,7,8-hexahydro-quinolin-4-yl)-6-ethoxy-phenylamino]-methyl}-phenyl)-methanesulfonamide], the figure is < 10 nM; as for `CCCC1CC(=O)C2=C(C1)NC(C)=C(C#N)C2c1cc(Br)c(OCc2ccccc2NCC2CC2)c(OCC)c1` (stereo not drawn) [Example 62, 4-{3-Bromo-4-[2-(cyclopropylmethyl-amino)-benzyloxy]-5-ethoxy-phenyl}-2-methyl-5-oxo-7-propyl-1,4,5,6,7,8-hexahydro-quinoline-3-carbonitrile], < 10 nM; as for `CCC[C@@H]1CC(=O)C2=C(C1)NC(C)=C(C#N)[C@H]2c1cc(Br)c(OCc2cc(F)c(F)cc2NS(C)(=O)=O)c(OCC)c1` [Example 72, N-{2-[2-Bromo-4-((4R,7S)-3-cyano-2-methyl-5-oxo-7-propyl-1,4,5,6,7,8-hexahydro-quinolin-4-yl)-6-ethoxy-phenoxymethyl]-4,5-difluoro-phenyl}-methanesulfonamide], < 10 nM.
